“Also recorded” adds a separate entry of the source.
Columns and labels:
[1] = test system: lettuce seedlings (Lactuca sativa L.); experiment: Petri-dish bioassay, radicle elongation in lettuce seedlings; assay type: in vivo; details: for IC50: Lactuca sativa
[2] = test system: fine leaf fescue seedlings cultivar Intrigue; experiment: Autotoxicity Petri dish bioassay with fine leaf fescue seeds; assay type: in vivo, Festuca rubra L. Subsp. Commutata Gaud.; details: 20 μM to 160 μM
[3] = test system: lettuce seedlings (Lactuca sativa L.); experiment: Soil bioassay, lettuce root growth; assay type: in vivo; details: for IC50: Lactuca sativa; for Root Length of Lettuce Seedlings: m-tyrosine at 160 μM
[4] = test system: Metarhizium anisopliae (Metsch.); experiment: Fungal disc assay; assay type: cell-based; details: even at concentrations as high as 25 mM
Description: m-Tyrosine was evaluated for its effect on several bacteria (Bacillus cereus, Bacillus subtilis, and Escherichia coli) grown on nutrient agar (Difco) plates (9 cm) and a fungal culture (Metarhizium anisopliae ([…].)) grown on potato dextrose agar (Difco) plates. These plates were spread with either 0.5 mL aliquots of a liquid bacterial culture grown for 18 h in nutrient broth or with 0.5 mL of a fungal spore suspension (1×10^6 spores/mL), and were allowed to dry for approximately 30 minutes. […] A disc moistened with 10 μl of water served as negative control, and positive controls consisted of discs spiked with ampicillin and tetracycline (5 μg). The plates were placed in an incubator at 25° C., and visually checked for zones of inhibition for up to four days. All experiments were performed in triplicate.

[5] = test system: onion (Allium cepa L.) root cells; experiment: Mitotic index of onion root tip cells; assay type: cell-based
Description: Root tips were stained for light microscopy examination using the Feulgen reaction. Root tips of three mm length were treated with a mixture of absolute ethanol:glacial acetic acid for two hours. The ethanol-glacial acetic acid mixture was removed and the tips were rinsed with distilled water. […] For each m-tyrosine concentration, five individual root tips were removed and macerated in a drop of 45% acetic acid on a slide, and the mitotic stages of the onion root tip cells were observed under a light microscope. […] One thousand cells were recorded per replication, resulting in observation of a total of 3000 cells per treatment. The experiment was repeated three times.

Wheat = experiment: Weed and crop Petri dish bioassay, radicle length; assay type: in vivo, Triticum aestivum L.
Description: (§1) m-Tyrosine activity was bioassayed using selected weed and crop species. Growth inhibition as measured by radicle elongation was evaluated in dandelion (Taraxacum officinale Weber in […].), large crabgrass (Digitaria sanguinalis (L.) Scop.), velvetleaf (Abutilon theophrasti Medicus), black medic (Medicago lupulina L.), curly cress (Lepidium sativum L.), bamyardgrass (Echinochloa crus-galli.(L.) Beauv.), lettuce (Lactuca sativa L.), purslane (Portulaca oleracea L.), annual bluegrass (Poa annua L.), birdsfoot trefoil (Lotus corniculatus L.), broadleaf plantain (Plantago major L.), mouseear chickweed (Cerastium vulgatum L.), common chickweed (Stellaria media (L.) Vill.), white clover (Trifolium repens L.), wheat (Triticum aestivum L.), tomato (Lycopersicon esculentum var. esculentum P. Mill.), tobacco (Nicotiana tobacum L.), and sorghum sudangrass hybrid (Sorghum bicolor x Sudanese). Weeds were purchased from HerbiSeeds, England, tomato seeds were purchased from Agway (Ithaca N.Y.), and wheat, sudex and tobacco where donated by Pioneer Seeds (Johnson, Iowa). Seeds were sterilized by a water: ethanol mixture (1:1) for one minute and rinsed three times thoroughly in distilled water. […] At the end of the incubation period, radicle length was measured. […]

Mouseear chickweed = experiment: Weed and crop Petri dish bioassay, radicle length; assay type: in vivo, Cerastium vulgatum L.
Description: (§2) m-Tyrosine activity was bioassayed using selected weed and crop species. Growth inhibition as measured by radicle elongation was evaluated in dandelion (Taraxacum officinale Weber in […].), large crabgrass (Digitaria sanguinalis (L.) Scop.), velvetleaf (Abutilon theophrasti Medicus), black medic (Medicago lupulina L.), curly cress (Lepidium sativum L.), bamyardgrass (Echinochloa crus-galli.(L.) Beauv.), lettuce (Lactuca sativa L.), purslane (Portulaca oleracea L.), annual bluegrass (Poa annua L.), birdsfoot trefoil (Lotus corniculatus L.), broadleaf plantain (Plantago major L.), mouseear chickweed (Cerastium vulgatum L.), common chickweed (Stellaria media (L.) Vill.), white clover (Trifolium repens L.), wheat (Triticum aestivum L.), tomato (Lycopersicon esculentum var. esculentum P. Mill.), tobacco (Nicotiana tobacum L.), and sorghum sudangrass hybrid (Sorghum bicolor x Sudanese). Weeds were purchased from HerbiSeeds, England, tomato seeds were purchased from Agway (Ithaca N.Y.), and wheat, sudex and tobacco where donated by Pioneer Seeds (Johnson, Iowa). Seeds were sterilized by a water: ethanol mixture (1:1) for one minute and rinsed three times thoroughly in distilled water. The simple phytotoxicity bioassay utilized consisted of the evaluation of radicle length of ten sterilized seeds of each weed/crop deposited on a filter paper containing the appropriate m-tyrosine test solution in 4.5 cm Petri dishes. […] A 1000 μL aliquot of the appropriate test solution was added to individual Petri dishes lined with Whatman No. 1 filter paper. Control dishes received 1000 μL of water. After seeds were placed on moistened filter paper, Petri dishes were transferred to a controlled environment with a light regime of 45,33 photon m^-2 s^-1 and maintained at an average temperature of 25° C. for 7 days. At the end of the incubation period, radicle length was measured. Treatments were replicated three times, and the experiment for each plant species tested was repeated three times.

Arabidopsis = experiment: Weed and crop Petri dish bioassay, radicle length; assay type: in vivo, Arabidopsis thaliana L.
Dandelion = experiment: Weed and crop Petri dish bioassay, radicle length; assay type: in vivo, Taraxacum officinale Weber in Weggers.
Description: as §2

Birdsfoot trefoil = experiment: Weed and crop Petri dish bioassay, radicle length; assay type: in vivo, Lotus corniculatus L.
Description: as §1

Annual bluegrass = experiment: Weed and crop Petri dish bioassay, radicle length; assay type: in vivo, Poa annua L.
Description: as §2

Broadleaf Plantain = experiment: Weed and crop Petri dish bioassay, radicle length; assay type: in vivo, Plantago major L.
Description: as §1

Black Medic = experiment: Weed and crop Petri dish bioassay, radicle length; assay type: in vivo, Medicago lupulina L.
Description: as §1

Barnyard grass = experiment: Weed and crop Petri dish bioassay, radicle length; assay type: in vivo, Echinochloa crus-galli (L.) Beauv.
Description: as §1

[6] = test system: Arabidopsis thaliana seedlings; experiment: Arabidopsis root growth inhibition in growth media; assay type: in vivo; details: Arabidopsis thaliana; applied to the growth media; mixture of D and L m-tyrosine; read-out: concentration reducing root length of Arabidopsis by 50%
[7] = Dissolution in aqueous solution; assay type: physicochemical

Structure (SMILES): N[C@@H](Cc1cccc(O)c1)C(=O)O [m-tyrosine, 3-hydroxyphenylalanine]
- reduction of root elongation of lettuce seedlings ([1]; 20 μM loaded on filter paper): 64%
- IC50 ([1]; lettuce seedlings at 72 h, read-out: concentration for 50% reduction of root growth): 17 µM
- IC50 ([1]; soil-less assay, read-out: I50, 50% inhibition of root growth of lettuce): ~8 µM
- root elongation of pre-germinated lettuce seeds ([1]; solutions added to pre-germinated seeds): strongly inhibited
- root elongation of fescue seedlings [2]: not affected; also recorded: No inhibition
- IC50 ([3]; in soil, read-out: I50, 50% inhibition of root growth of lettuce): ~30 µM
- IC50 ([3]; soil media, lettuce, read-out: concentration reducing root elongation by 50%): 4000 µM
- Root Length of Lettuce Seedlings ([3]; ammonium nitrate 0 mM): 2.07 (0.02) cm
- Root Length of Lettuce Seedlings ([3]; ammonium nitrate 0.125 mM): 3.56 (0.07) cm
- Root Length of Lettuce Seedlings ([3]; ammonium nitrate 0.25 mM): 4.82 (0.1) cm
- Root Length of Lettuce Seedlings ([3]; ammonium nitrate 0.5 mM): 4.8 (0.09) cm
- Root Length of Lettuce Seedlings ([3]; ammonium nitrate 1.0 mM): 4.8 (0.12) cm
- reduction of the inhibition of radicle elongation ([3]; with 1 mM NH4NO3 in comparison to m-tyrosine without soil NH4NO3): approximately 25%
- sensitivity of fungal cultures [4]: not sensitive
- mitotic indices in all phases of mitosis ([5]; 20 μM): significantly reduced
- Anaphase, total cells observed ([5]; m-tyrosine 10 (μM)): 1.6%
- Metaphase, total cells observed ([5]; m-tyrosine 10 (μM)): 1.4%
- Prophase, total cells observed ([5]; m-tyrosine 10 (μM)): 2.2%
- Telophase, total cells observed ([5]; m-tyrosine 10 (μM)): 2%
- Anaphase, total cells observed ([5]; m-tyrosine 20 (μM)): 1.1%
- Metaphase, total cells observed ([5]; m-tyrosine 20 (μM)): 1%
- Prophase, total cells observed ([5]; m-tyrosine 20 (μM)): 2%
- Telophase, total cells observed ([5]; m-tyrosine 20 (μM)): 1%
- Anaphase, total cells observed ([5]; m-tyrosine 40 (μM)): 0.6%
- Metaphase, total cells observed ([5]; m-tyrosine 40 (μM)): 0.4%
- Prophase, total cells observed ([5]; m-tyrosine 40 (μM)): 1%
- Telophase, total cells observed ([5]; m-tyrosine 40 (μM)): 0.2%
- Anaphase, total cells observed ([5]; m-tyrosine 80 (μM)): 0.5%
- Metaphase, total cells observed ([5]; m-tyrosine 80 (μM)): 0%
- Prophase, total cells observed ([5]; m-tyrosine 80 (μM)): 0.5%
- Telophase, total cells observed ([5]; m-tyrosine 80 (μM)): 0.2%
- Anaphase, total cells observed ([5]; m-tyrosine 160 (μM)): 0%
- Metaphase, total cells observed ([5]; m-tyrosine 160 (μM)): 0%
- Prophase, total cells observed ([5]; m-tyrosine 160 (μM)): 0.2%
- Telophase, total cells observed ([5]; m-tyrosine 160 (μM)): 0.3%
- I10 (Wheat): 80 µM
- IC50 (Wheat; Triticum aestivum, read-out: I50): 157 µM
- I10 (Mouseear chickweed): 6 µM
- I100 (Mouseear chickweed): 47 µM
- IC50 (Mouseear chickweed; Cerastium, read-out: I50): 9 µM
- I10 (Arabidopsis): 6 µM
- I100 (Arabidopsis): 50 µM
- IC50 (Arabidopsis; Arabidopsis thaliana, read-out: I50): 15 µM
- I10 (Dandelion): 10 µM
- I100 (Dandelion): 160 µM
- IC50 (Dandelion; Taraxacum officinale, read-out: I50): 39 µM
- I10 (Birdsfoot trefoil): 20 µM
- IC50 (Birdsfoot trefoil; Lotus corniculatus, read-out: I50): 42 µM
- I10 (Annual bluegrass): 25 µM
- I100 (Annual bluegrass): 320 µM
- IC50 (Annual bluegrass; Poa annua, read-out: I50): 47 µM
- I10 (Broadleaf Plantain): 30 µM
- IC50 (Broadleaf Plantain; Plantago major, read-out: I50): 72 µM
- I10 (Black Medic): 40 µM
- IC50 (Black Medic; Medicago lupulina, read-out: I50): 84 µM
- I10 (Barnyard grass): 80 µM
- IC50 (Barnyard grass; Echinochloa crus-galli, read-out: I50): 257 µM
- IC50 [6]: 2 µM
- dissolution in an aqueous solution [7]: easily dissolved
